The test system of data set [1] is healthy elderly Japanese male subjects. The data set can be described thus: Bleeding time (BT) by the Ivy method. To be noted: 30 mg edoxaban once daily for 3 days, Day 3, 3 h after administration.
Text: (§2) This study was a randomized, open-label, parallel-group, repeated-dose study conducted at a single center.
(§3) We measured BT by the Ivy method [12] using a needle type of BD Microtainer Contact-Activated Lancet device (Becton, Dickinson and Company, USA). The incision was made in the lateral aspect of the forearm by puncturing at one arbitrary site with the device. After the incision, we blotted the blood every 30 s with filter paper until the bleeding reached hemostasis and recorded the time from the puncture to the end of bleeding. When the time to hemostasis exceeded 10 min, it was recorded as such, ending the observation. […] Baseline BT was measured on the day of admission at approximately the same time of day as the BT evaluations on Day 3 and Day 8, 3 hours after the administration of study drug(s).
(§4) For the primary endpoint analysis, a logarithmically converted value of BT for each sample was the dependent variable in a linear mixed model with fixed and random effects.
The subject of another data set is platelet aggregation. The data set can be described thus: P2Y12 reaction units (PRU), VerifyNow system. Format: in vivo, human. The settings on record: 30 mg edoxaban alone, Day 3. How it is done:
(§1) Blood was collected in a vacuum blood collection tube containing 3.2% sodium citrate, and the schedule for the blood sample collection is shown in Table 1. Blood coagulation marker PT was measured by PT reagent Thrombocheck-PT in system CS-200i (Sysmex Corporation, Japan); aPTT by aPTT reagent HemosIL SynthASil in system ACL TOP Base (IL, Japan; Instrumentation Laboratory, USA) and F1 + 2 by ELISA Enzygnost F1 + 2 monoclonal reagent in system Behring ELISA Processor III and DiaSorin (BIT Analytical Instruments GmbH, Germany). These assays were carried out at LSI Medience Corporation (Tokyo, Japan). We measured PRU with VerifyNow system (Instrumentation Laboratory, Bedford, MA, USA) at Sumida Hospital.

The subject of another data set is blood coagulation. The data set is described as follows: Activated partial thromboplastin time (aPTT), HemosIL SynthASil reagent. Format: in vivo, human. The settings on record: 30 mg edoxaban, Day 3. How it is done:
as §1

Data set [2] in a line: Plasma edoxaban pharmacokinetics (LC-MS/MS, noncompartmental analysis). The settings on record: 30 mg edoxaban alone, Day 3; for AUC / Cmax / Tmax: male, human, in vivo, 30 mg; for AUC: AUCtau,ss of edoxaban; for Cmax: Cmax,ss of edoxaban; for Tmax: tmax,ss of edoxaban. How it is done:
Plasma samples were obtained by centrifugation, and the samples were immediately frozen at − 20 °C or lower.
Summary statistics were calculated for baseline and postdose values for the primary endpoint of BT and secondary endpoints of PD indices (PT, aPTT, F1 + 2, PRU) for each target population. […] 8.1 based on Model 1200 (Extravascular). AUCtau,ss was calculated by the linear-Log trapezoidal method.
For the secondary endpoints analysis, we used the logarithmically converted PK parameters (Cmax,ss, AUCtau,ss, tmax,ss) as dependent variables in a linear mixed model with fixed and variable effects.

Data set [3] relates to healthy elderly Japanese male subjects. The data set can be described thus: Safety: adverse events in the clinical pharmacology study. The settings on record: 30 mg edoxaban alone, 24 participants.
The test system is the same in data set [4]. To be noted: in vivo.
Text: as §2, §3, §4

The text below walks through data of publication PMC7291522 (Thrombosis Journal, 2020).

SMILES strings stand for the structures.

Consider `CN1CCc2nc(C(=O)N[C@@H]3C[C@@H](C(=O)N(C)C)CC[C@@H]3NC(=O)C(=O)Nc3ccc(Cl)cn3)sc2C1` [Edoxaban, edoxaban], for which the “Bleeding time, Mean (SD)” value in data set [1] (Group 1, n = 12) is reported as 3.5 (0.6) min; in data set [1] (Group 2, n = 12), 4.7 (1.6) min. The “Bleeding time, Median (IQR)” value in data set [1] (Group 1, n = 12) is given as 3.5 (3.0–4.0) min; in data set [1] (Group 2, n = 12), 4.5 (3.3–6.0) min. Further, the “Effect on PRU” value in the data set with platelet aggregation is given as “essentially had no effect”. The “aPTT, mean” value was 38.0 s with blood coagulation (Group 1, baseline 31.9) and 39.9 s in the data set with blood coagulation (Group 2, baseline 34.2). In data set [2] (Group 2, n = 12), the “tmax,ss of edoxaban, Mean (SD)” value is 1.0 (0.84) h. The AUC in data set [2] (Mean (SD), Group 1, n = 12) came to 1060 ng·h/mL; in data set [2] (Mean (SD), Group 2, n = 12) it was 1070 ng·h/mL; in data set [2] (Median (IQR), Group 1, n = 12) it was 1020 ng·h/mL; in data set [2] (Median (IQR), Group 2, n = 12) it was 992 ng·h/mL. Moreover, the Cmax worked out at 216 ng/mL in data set [2] (Mean (SD), Group 1, n = 12); 191 ng/mL in data set [2] (Mean (SD), Group 2, n = 12); 200 ng/mL in data set [2] (Median (IQR), Group 1, n = 12); 170 ng/mL in data set [2] (Median (IQR), Group 2, n = 12). The Tmax in data set [2] (Mean (SD), Group 1, n = 12) came out at 72 min; in data set [2] (Median (IQR), Group 1, n = 12), 45 min; in data set [2] (Median (IQR), Group 2, n = 12) it was 30 min. For the same molecule, the “Positive results in the fecal occult blood test (number)” value in data set [3] is reported as “four”.
`CC(=O)Oc1cc2c(s1)CCN(C(C(=O)C1CC1)c1ccccc1F)C2` (stereo not drawn) [prasugrel]: the “Dose dependence of the effect of prasugrel on BT” value in data set [4] was “dose-dependent”.
